In US20060069132A1, “Azolecarboxamide herbicides” (priority 2004, published 2006):

Columns and labels:
johnsongrass = test: Test C pre-/postemergence herbicide test; type: in vivo, Sorghum halepense
Summary of the method: (§1)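 Emerged plants at the 1- to 4-leaf stage (2–18 cm), or freshly planted seeds, received test chemicals in a non-phytotoxic solvent mixture with surfactant. Response was visually scored against controls after 12 to 14 days in the greenhouse, on a 0 (no effect) to 100 (complete control) scale.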

common ragweed = test: Test C pre-/postemergence herbicide test; type: in vivo, Ambrosia elatior; parameters: key to Plant response rating, Ragweed: 0 = no effect, 100 = complete control; details: for Ragweed plant response rating: 500 g ai/ha
Summary of the method: as §1

corn = test: Test C pre-/postemergence herbicide test; type: in vivo, Zea mays; details: for Corn plant response rating: 500 g ai/ha
Summary of the method: as §1

kochia = test: Test C pre-/postemergence herbicide test; type: in vivo, Kochia scoparia; details: for Plant response rating (0 = no effect, 100 = complete control), Kochia: 62 g ai/ha; for Kochia plant response rating: 500 g ai/ha
Summary of the method: as §1

barnyardgrass = test: Test A pre-/postemergence herbicide test; type: in vivo, Echinochloa crus-galli
Summary of the method: (§2)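 Both application timings were run together: directed soil spray over freshly planted seeds in sandy loam, and runoff spray onto 2–10 cm seedlings. Evaluation after ~10 days in greenhouse used a 0–100 visual scale versus untreated controls.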

rice = test: Test C flooded paddy test; type: in vivo, Oryza sativa; details: for Plant response rating, Rice: 500 g ai/ha, visual rating after 12 to 14 days
Summary of the method: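 Postemergence sprays applied to plants 2 to 18 cm tall (1- to 4-leaf stage); paddy species grown to 2-leaf stage under flooding. After 12 to 14 days in greenhouse, visual rating versus untreated controls on 0–100 scale (0 no effect, 100 complete control).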

giant foxtail [1] = test: Test A pre-/postemergence herbicide test; type: in vivo, Setaria faberi
Summary of the method: as §2

[2] = test system: smallflower umbrella sedge; test: Test C flooded paddy test; type: in vivo, Cyperus difformis; details: for Plant response rating, Sedge, Umbrella: 500 g ai/ha, visual rating after 12 to 14 days
large crabgrass = test: Test A pre-/postemergence herbicide test; type: in vivo, Digitaria sanguinalis
Summary of the method: as §2

giant foxtail [3] = test: Test C pre-/postemergence herbicide test; type: in vivo, Setaria faberi; details: for Foxtail, Giant plant response rating: 500 g ai/ha
Summary of the method: as §1

[4] = 31 g ai/ha, preemergence, scale 0 to 100
[5] = 125 g ai/ha, scale 0 (no effect) to 100 (complete control), visual, 12 to 14 days, preemergence
[6] = 250 g ai/ha, scale 0 to 100 (0 no effect, 100 complete control), visual, 12 to 14 days, preemergence
[7] = Postemergence, 500 g ai/ha, 0 to 100 scale, 0 no effect, 100 complete control
[8] = Postemergence, 2000 g ai/ha, 0 to 100 scale, 0 no effect, 100 complete control
[9] = Preemergence, 500 g ai/ha, visual rating, 0 to 100 scale (0 no effect, 100 complete control)
[10] = Preemergence, 2000 g ai/ha, 0 to 100 scale, 0 no effect, 100 complete control
[11] = 62 g ai/ha, scale 0 to 100 (0 no effect, 100 complete control)
[12] = 125 g ai/ha, scale of 0 to 100, 0 is no effect, 100 is complete control
[13] = 250 g ai/ha, scale of 0 to 100, 0 is no effect, 100 is complete control
[14] = scale 0 to 100 (0 no effect, 100 complete control)
[15] = Preemergence, 2000 g ai/ha, visual rating, 0 to 100 scale (0 no effect, 100 complete control)
[16] = 125 g ai/ha, scale 0 to 100 (0 no effect, 100 complete control)
[17] = Postemergence, 250 g ai/ha, scale 0 to 100, 0 no effect, 100 complete control
[18] = postemergence, 125 g ai/ha, scale 0 to 100
[19] = postemergence, 62 g ai/ha, scale 0 to 100
[20] = Preemergence, scale 0 to 100, 0 no effect, 100 complete control

CCOC(=O)c1cc(NC(=O)c2cc(C(C)(C)C)nn2CC)ccc1OCC [Compound 95]
Plant response rating, Johnsongrass (johnsongrass; [4]): 0
Plant response rating (0 = no effect, 100 = complete control), Johnsongrass (johnsongrass; 62 g ai/ha, preemergence): 0
Plant response rating, Johnsongrass (johnsongrass; [5]): 40
Plant response rating, Ragweed (common ragweed; [4]): 10
Plant response rating (0 = no effect, 100 = complete control), Ragweed (common ragweed; 62 g ai/ha, preemergence): 50
Plant response rating, Ragweed (common ragweed; [5]): 80
Plant response rating, Corn (corn; [4]): 0
Plant response rating (0 = no effect, 100 = complete control), Corn (corn; 62 g ai/ha, preemergence): 0
Plant response rating, Corn (corn; [5]): 10
Plant response rating, Corn (corn; [6]): 20
Plant response rating, Kochia (kochia; [4]): 80
Plant response rating (0 = no effect, 100 = complete control), Kochia (kochia; preemergence): 100
Plant response rating, Kochia (kochia; [5]): 100
Barnyardgrass plant response rating (barnyardgrass; [7]): 30
Plant response rating, Barnyardgrass (barnyardgrass; [8]): 55
Barnyardgrass plant response rating (barnyardgrass; [9]): 30
Barnyardgrass plant response rating (barnyardgrass; [10]): 50
Rice plant response rating (rice; [11]): 10
Rice plant response rating (rice; [12]): 10
Rice plant response rating (rice; [13]): 55
Plant response rating, Rice (rice; [14]): 65
Foxtail, Giant plant response rating (giant foxtail [1]; [7]): 20
Plant response rating, Foxtail, Giant (giant foxtail [1]; [8]): 50
Foxtail, Giant plant response rating (giant foxtail [1]; [9]): 70
Foxtail, Giant plant response rating (giant foxtail [1]; [10]): 90
Sedge, Umbrella plant response rating [2, 11]: 85
Sedge, Umbrella plant response rating [2, 12]: 90
Sedge, Umbrella plant response rating [2, 13]: 95
Plant response rating, Sedge, Umbrella [2, 14]: 95
Crabgrass, Large plant response rating (large crabgrass; [7]): 25
Plant response rating, Crabgrass, Large (large crabgrass; [8]): 60
Crabgrass, Large plant response rating (large crabgrass; [9]): 50
Crabgrass, Large plant response rating (large crabgrass; [10]): 90
Plant response rating, Foxtail, Giant (giant foxtail [3]; [4]): 0
Plant response rating (0 = no effect, 100 = complete control), Foxtail, Giant (giant foxtail [3]; 62 g ai/ha, preemergence): 60
Plant response rating, Foxtail, Giant (giant foxtail [3]; [5]): 100
Plant response rating, Foxtail, Giant (giant foxtail [3]; [6]): 100

CC(=O)c1cccc(NC(=O)c2cc(C(C)(C)C)nn2CCF)c1 [Compound 128]
Plant response rating (0 = no effect, 100 = complete control), Johnsongrass (johnsongrass; 62 g ai/ha, preemergence): 90
Plant response rating, Johnsongrass (johnsongrass; [5]): 90
Plant response rating (0 = no effect, 100 = complete control), Ragweed (common ragweed; 62 g ai/ha, preemergence): 10
Plant response rating, Ragweed (common ragweed; [5]): 20
Plant response rating (0 = no effect, 100 = complete control), Corn (corn; 62 g ai/ha, preemergence): 20
Plant response rating, Corn (corn; [5]): 20
Plant response rating (0 = no effect, 100 = complete control), Kochia (kochia; preemergence): 0
Plant response rating, Kochia (kochia; [5]): 0
Barnyardgrass plant response rating (barnyardgrass; [7]): 70
Plant response rating, Barnyardgrass (barnyardgrass; [8]): 80
Barnyardgrass plant response rating (barnyardgrass; [9]): 55
Barnyardgrass plant response rating (barnyardgrass; [15]): 85
Rice plant response rating (rice; [11]): 25
Rice plant response rating (rice; [16]): 40
Rice plant response rating (rice; [13]): 70
Plant response rating, Rice (rice; [14]): 70
Foxtail, Giant plant response rating (giant foxtail [1]; [7]): 45
Plant response rating, Foxtail, Giant (giant foxtail [1]; [8]): 60
Foxtail, Giant plant response rating (giant foxtail [1]; [9]): 15
Foxtail, Giant plant response rating (giant foxtail [1]; [15]): 65
Sedge, Umbrella plant response rating [2, 11]: 80
Sedge, Umbrella plant response rating [2, 16]: 90
Sedge, Umbrella plant response rating [2, 13]: 95
Plant response rating, Sedge, Umbrella [2, 14]: 95
Crabgrass, Large plant response rating (large crabgrass; [7]): 60
Plant response rating, Crabgrass, Large (large crabgrass; [8]): 70
Crabgrass, Large plant response rating (large crabgrass; [9]): 90
Crabgrass, Large plant response rating (large crabgrass; [15]): 100
Plant response rating (0 = no effect, 100 = complete control), Foxtail, Giant (giant foxtail [3]; 62 g ai/ha, preemergence): 10
Plant response rating, Foxtail, Giant (giant foxtail [3]; [5]): 10

CCNC(=O)c1cccc(NC(=O)c2cc(C(C)(C)C)nn2CC)n1 [Compound 144]
Plant response rating (0 = no effect, 100 = complete control), Johnsongrass (johnsongrass; 62 g ai/ha, preemergence): 0
Plant response rating, Johnsongrass (johnsongrass; [5]): 0
Plant response rating, Johnsongrass (johnsongrass; [17]): 10
Johnsongrass plant response rating (johnsongrass; Preemergence, 500 g ai/ha, scale 0 to 100, 0 no effect, 100 complete control): 90
Plant response rating, Johnsongrass (johnsongrass; [18]): 0
Plant response rating, Johnsongrass (johnsongrass; [19]): 0
Plant response rating (0 = no effect, 100 = complete control), Ragweed (common ragweed; 62 g ai/ha, preemergence): 0
Plant response rating, Ragweed (common ragweed; [5]): 30
Ragweed plant response rating (common ragweed; Postemergence, scale 0 to 100): 80
Plant response rating, Ragweed (common ragweed; [17]): 50
Ragweed plant response rating (common ragweed; [20]): 80
Plant response rating, Ragweed (common ragweed; [18]): 0
Plant response rating, Ragweed (common ragweed; [19]): 0
Plant response rating (0 = no effect, 100 = complete control), Corn (corn; 62 g ai/ha, preemergence): 0
Plant response rating, Corn (corn; [5]): 30
Plant response rating, Corn (corn; [6]): 40
Corn plant response rating (corn; Postemergence, scale 0 to 100): 30
Plant response rating, Corn (corn; [17]): 20
Corn plant response rating (corn; [20]): 50
Plant response rating, Corn (corn; [18]): 20
Plant response rating, Corn (corn; [19]): 10
Plant response rating (0 = no effect, 100 = complete control), Kochia (kochia; preemergence): 75
Plant response rating, Kochia (kochia; [5]): 80
Kochia plant response rating (kochia; Postemergence, scale 0 to 100): 85
Plant response rating, Kochia (kochia; [17]): 70
Kochia plant response rating (kochia; [20]): 100
Plant response rating, Kochia (kochia; [18]): 65
Barnyardgrass plant response rating (barnyardgrass; [7]): 85
Plant response rating, Barnyardgrass (barnyardgrass; [8]): 100
Barnyardgrass plant response rating (barnyardgrass; [9]): 100
Barnyardgrass plant response rating (barnyardgrass; [15]): 100
Rice plant response rating (rice; [11]): 0
Rice plant response rating (rice; [16]): 20
Rice plant response rating (rice; [13]): 30
Plant response rating, Rice (rice; [14]): 30
Foxtail, Giant plant response rating (giant foxtail [1]; [7]): 80
Plant response rating, Foxtail, Giant (giant foxtail [1]; [8]): 100
Foxtail, Giant plant response rating (giant foxtail [1]; [9]): 90
Foxtail, Giant plant response rating (giant foxtail [1]; [15]): 100
Sedge, Umbrella plant response rating [2, 11]: 80
Sedge, Umbrella plant response rating [2, 16]: 80
Sedge, Umbrella plant response rating [2, 13]: 80
Plant response rating, Sedge, Umbrella [2, 14]: 90
Crabgrass, Large plant response rating (large crabgrass; [7]): 55
Plant response rating, Crabgrass, Large (large crabgrass; [8]): 90
Crabgrass, Large plant response rating (large crabgrass; [9]): 90
Crabgrass, Large plant response rating (large crabgrass; [15]): 90
Plant response rating (0 = no effect, 100 = complete control), Foxtail, Giant (giant foxtail [3]; 62 g ai/ha, preemergence): 40
Plant response rating, Foxtail, Giant (giant foxtail [3]; [5]): 70
Plant response rating, Foxtail, Giant (giant foxtail [3]; [6]): 100
Foxtail, Giant plant response rating (giant foxtail [3]; Postemergence, scale 0 to 100): 70
Plant response rating, Foxtail, Giant (giant foxtail [3]; [17]): 50
Foxtail, Giant plant response rating (giant foxtail [3]; [20]): 100
Plant response rating, Foxtail, Giant (giant foxtail [3]; [18]): 10
Plant response rating, Foxtail, Giant (giant foxtail [3]; [19]): 0
